# Assay results taken from patent US20250248209A1, “LIGHT-EMITTING DEVICE” (SEMICONDUCTOR ENERGY LABORATORY CO., LTD., priority 2024, published 2025).
# “Also recorded” adds a separate entry of the source.
# Test: Solubility test of each organic compound in pure water by LC-MS analysis
# Format: physicochemical
# Details: 1 mg compound in 1 mL water, ultrasonic waves five minutes, filtered, evaluated from LC peak area; for solubility at 5 min: pure water, thermodynamic from solid
# Experimental: In the LC-MS analysis, liquid chromatography (LC) separation was carried out with ACQUITY UPLC (Waters Corporation), and mass spectrometry (MS) analysis was carried out with Xevo G2 Tof MS (Waters Corporation). Note that this analysis was performed on Hid2Phen, Pyrrd-Phen, and PrdP2Phen. ACQUITY UPLC BEH C8 (2.1×100 mm, 1.7 μm) was used as a column for the LC separation. Acetonitrile was used for Mobile Phase A and a 0.1% aqueous solution of formic acid was used for Mobile Phase B. The injection amount of the sample was 5.0 μL. Note that in the analysis, the wavelength of a photodiode array detector was set to 263 nm±1 nm.
# Then, in a 5-mL sample bottle, 1 mg of each organic compound was put and 1 mL of water was added thereto. The mixture was irradiated with ultrasonic waves for five minutes. The mixture was filtered through a membrane filter to remove the solid. The resulting solution was subjected to the LC-MS analysis to create a chromatogram. The solubility was evaluated from the area of a peak in the chromatograph.
Compound,solubility at 5 min,Solubility in pure water
"c1cc(N2CC3CCCCC3C2)c2ccc3c(N4CC5CCCCC5C4)ccnc3c2n1 (stereo not drawn) [Hid2Phen, 4,7-di(2,3,3a,4,5,6,7,7a-octahydro-^1H-isoindol-2-yl)-1,10-phenanthroline]",5.5 µg/mL,–
"c1cc(-c2ccc(N3CCCC3)cc2)c2ccc3c(-c4ccc(N5CCCC5)cc4)ccnc3c2n1 [PrdP2Phen, 4,7-bis[4-(1-pyrrolidinyl)phenyl]-1,10-phenanthroline]",–,below the lower detection limit; also recorded: extremely low solubility in pure water; also recorded: Not detected
"c1cc(N2CCCC2)c2ccc3c(N4CCCC4)ccnc3c2n1 [Pyrrd-Phen, 4,7-di-1-pyrrolidinyl-1,10-phenanthroline]",≥ 50 µg/mL,–
